# Laboratory results: US9918968B2, “Rapamycin analogs targeting proteasome function in the treatment of cancer” (THE BOARD OF REGENTS OF THE UNIVERSITY OF TEXAS SYSTEM, priority 2013, dated 2018)
# Tests used:
# [1] = target: T1, human 20S proteasome, ChT-L peptidase; test: ChT-L peptidase activity of purified human 20S proteasome (Suc-LLVY-MCA); assay type: biochemical; conditions: latent human 20S proteasome
# T1 construct: purchased Enzo LifeSciences
# Procedure: Human purified proteasome complexes were purchased from Enzo LifeSciences or Boston Biochemicals (19S complex). BODIPY-casein (Invitrogen/Molecular Probes) was used as a model protein substrate, with increasing fluorescence of BODIPY labeled peptide products of degradation monitored for up to 8 hours at 37° C. The peptidase activity of the enzyme was measured as arbitrary intensity units of the released fluorescent group 7-amino-4-methylcoumarin (AMC) from peptide substrates, as described. […] Proteasome substrates, rapamycin, its derivatives, and competing peptides were stocked in DMSO and diluted 100-fold in the reaction mixtures. The Rpt5 and PA200 C-terminal peptides were synthesized in the Departmental Peptide Synthesis Core using the standard SPPS chemistry. To activate the latent 20S proteasome, 0.005% (final concentration) of sodium dodecyl sulfate (SDS) was used. […] The fluorescence of products was monitored every 2 minutes with a Fluoroskan Ascent plate reader. Reaction rates were calculated from smoothed linear segment of kinetic curves using OriginPro 8.6 (OriginLabs, Northampton, Mass.). For the determination of an inhibition type, at least six distinct substrate concentrations and two inhibitor concentrations were used. The kinetic parameters of inhibition were analyzed in terms of the Michaelis-Menten formalism using the enzyme kinetic module of SigmaPlot v.12 (Systat Software, Inc, San Jose, Calif.) to perform the respective calculations. […]
# The in vitro assay for testing the ChT-L peptidase activity of the purified human 20S proteasome was performed as described above.
# [2] = system: T2, human 20S proteasome, T-L peptidase; test: T-L peptidase activity of purified human 20S proteasome (BocLRR-MCA); assay type: biochemical
# T2 construct: purchased Enzo LifeSciences
# Procedure: (§1) Human purified proteasome complexes were purchased from Enzo LifeSciences or Boston Biochemicals (19S complex). BODIPY-casein (Invitrogen/Molecular Probes) was used as a model protein substrate, with increasing fluorescence of BODIPY labeled peptide products of degradation monitored for up to 8 hours at 37° C. The peptidase activity of the enzyme was measured as arbitrary intensity units of the released fluorescent group 7-amino-4-methylcoumarin (AMC) from peptide substrates, as described. The common substrates specific for the three kinds of active sites: succinyl-LeuLeuValTyr-7-amido-4-methylcoumarin (Suc-LLVY-MCA; for the ChT-L activity; Bachem), butoxycarbonyl-LeuArgArg-MCA (BocLRR-MCA; for T-L; Bachem) and carbobenzoxy-LeuLeuGlu-MCA (CbzLLE-MCA; for PGPH; Enzo Life Sciences International, Inc.) were used at 100 μM final concentrations, unless stated otherwise (Gaczynska and Osmulski, 2005). Proteasome substrates, rapamycin, its derivatives, and competing peptides were stocked in DMSO and diluted 100-fold in the reaction mixtures. The Rpt5 and PA200 C-terminal peptides were synthesized in the Departmental Peptide Synthesis Core using the standard SPPS chemistry. To activate the latent 20S proteasome, 0.005% (final concentration) of sodium dodecyl sulfate (SDS) was used. The reactions were carried out in 96 well plates, with 2.3 nM proteasome and other components as indicated dissolved in 50 mM Tris-HCl buffer (pH 8.0) and incubated at 37° C. for up to 1 hour. The fluorescence of products was monitored every 2 minutes with a Fluoroskan Ascent plate reader. Reaction rates were calculated from smoothed linear segment of kinetic curves using OriginPro 8.6 (OriginLabs, Northampton, Mass.). For the determination of an inhibition type, at least six distinct substrate concentrations and two inhibitor concentrations were used. The kinetic parameters of inhibition were analyzed in terms of the Michaelis-Menten formalism using the enzyme kinetic module of SigmaPlot v.12 (Systat Software, Inc, San Jose, Calif.) to perform the respective calculations.
# IC50 values (a drug concentration causing 50% inhibition of the indicated enzymatic activity) were calculated for ChT-L and PGPH peptidases. Kd (dissociation constant) and Bmax (maximal activation effect achieved; in % above the control activity) values were calculated for the T-L peptidase. Mean±SD from n=2 or 3 experiments, or data from representative experiments set in duplicates or triplicates, are presented in the table. All three peptidase activities changed by no more than ±20%, without a concentration-dependent trend, upon treatment with up to 10 μM of rapamycin unrelated mTOR inhibitors PI-103 or NVP-BEZ235, in two independent experiments.
# [3] = system: T3, 20S core with 19S, 11S, tRpt5 or tPA200; test: Activation of 20S core ChT-L activity by α face ligands (19S, 11S, tRpt5, tPA200); assay type: biochemical, human; conditions: 10 μM derivative
# T3 construct: purchased Enzo LifeSciences (20S, 11S); Boston Biochemicals (19S complex)
# Procedure: as §1
# De novo assembly of 19S from subunits is a complex process assisted by chaperones. In vitro, and likely also in cells, the 26S can also be reconstructed from 20S and the already-assembled 19S particle in the presence of ATP (Smith et al., 2005). Enhancement of the peptidase activities of the core proteasome is an established test for efficiency of the in vitro reconstruction. […] In contrast, a pretreatment of 20S with 5 μM rapamycin before adding ATP and 19S totally abrogated the activation, leaving the proteasome almost 40% inhibited instead (FIG. 6).
# RPMI 8226 myeloma cells = test: Live/dead cell count, RPMI 8226 myeloma cells; assay type: cell-based, human; conditions: 48 hrs
# Procedure: (§2) Culture Collection; ATCC) were cultured according to ATCC specifications: HeLa.S3 cervical adenocarcinoma, MCF7 breast adenocarcinoma, MDA-MB-231 breast adenocarcinoma (representing triple negative breast cancer), and RPMI 8226 myeloma. The cells were grown in 24 or 12-well cell culture plates. When the cells reached about 60% confluency (surface-growing HeLa.S3,MCF7 and MDA-MB-231) or a density of about 7×10^5 (suspension-growing RPMI 8226), the inhibitors dissolved in DMSO or the solvent (DMSO) diluted in respective culture medium were added and the cells were further cultured for additional 48 hours. […] The final concentration of the solvent was 1% (vol/vol). The number of live and dead cells after the treatment was approximated with calcein AM and ethidium homodimer (LiveDead test, Invitrogen) according to manufacturer's protocol, or by a Trypan Blue exclusion assay. In short, the cells after the treatment were washed three times with PBS and overlaid (surface-growing) or mixed (suspension-growing) with 4 microM calcein AM and 2 microM ethidium homodimer in PBS. Fluorescence of calcein and DNA-bound ethidium homodimer was measured with Fluoroskan Ascent plate reader, at 485 nm (excitation)/538 nm (emission) and 530 nm/619 nm, respectively. The cell counts were approximated using standard curves of live and digitonin-killed cells prepared for each strain. Alternatively, after cell treatment the medium was removed, the surface growing cells were overlaid with Trypan Blue solution, and the colorless (live) and blue-colored (dead) cells were counted under the inverted microscope.
# [4] = system: HeLa.S3 cervical carcinoma cells; test: Live/dead cell count, HeLa.S3 cells; assay type: cell-based, human; conditions: up to 500 nM, 48 hrs
# Procedure: as §2
# mTOR = mTOR (Homo sapiens, UniProt P42345+P62942); conditions: cited from earlier work
compound,measurement,setting,value
CO[C@@H](C[C@@H]1CC[C@@H](C)[C@](O)(C(=O)C(=O)N2CCCC[C@H]2C(=O)[O-])O1)/C(C)=C/C=C/C=C/[C@@H](C)C[C@@H](C)C(=O)[C@H](OC)[C@H](O)/C(C)=C/[C@@H](C)C(=O)/C=C/[C@H](C)C[C@@H]1CC[C@@H](O)[C@H](OC)C1.[Na+] [seco-rapamycin],IC50,[1],> 20 µM
same,activation of post-basic (T-L) cleavages,[2]; 5 μM,~2 fold
same,Kd,[2]; activation of T-L peptidase,5.33 µM
same,Bmax [%]: T-L,"[2]; maximal activation effect, % above the control activity",77%
same,lowering of activation by tRpt5,[3]; 10 μM tRpt5,about 30%
same,inhibition of proteasome with or without tPA200,[3]; presence or absence of 10 μM tPA200,about 40%
same,drop in the live cell count,RPMI 8226 myeloma cells; 100 nM,50%
same,cells alive,RPMI 8226 myeloma cells; 200 nM,only one-third of the control cells alive
same,cytotoxicity,[4],did not reveal cytotoxicity
same,effect on mTOR function,mTOR,not to affect the mTOR function
